{"source": "patent US20220313698A1", "about": "“MODULATORS OF CYSTIC FIBROSIS TRANSMEMBRANE CONDUCTANCE REGULATOR” (Vertex Pharmaceuticals Incorporated, priority 2019, published 2022)", "key": {"[1]": {"details": "snar bond, 15-membered ring"}, "[2]": {"molecular_target": "T1, CFTR-mediated chloride transport (Homo sapiens, UniProt P13569)", "test": "Corrector Assay A - membrane potential dye assay (enteroid cells)"}, "[3]": {"molecular_target": "T1, CFTR-mediated chloride transport", "test": "Corrector Assay B - membrane potential dye assay (enteroid cells);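 note: methyl oxonol membrane potential fluorescence followed over 15 min after switching to chloride-free buffer with forskolin, 100 µM IBMX and ivacaftor, in presence of CaCC blockers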", "description": "Base medium (ADF+++) consisted of Advanced DMEM/Ham's F12, 2 mM Glutamax, 10 mM HEPES, 1 μg/ml penicillin/streptomycin.\nIntestinal enteroid maintenance medium (IEMM) consisted of ADF+++, 1×B27 supplement, 1×N2 supplement, 1.25 mM N-acetyl cysteine, 10 mM Nicotinamide, 50 ng/mL hEGF, 10 nM Gastrin, 1 μg/mL hR-spondin-1, 100 ng/mL hNoggin, TGF-b type 1 inhibitor A-83-01, 100 μg/mL Primocin, 10 μM P38 MAPK inhibitor SB202190.\nBath 1 Buffer consisted of 1 mM MgCl2, 160 mM NaCl, 4.5 mM KCl, 10 mM HEPES, 10 mM Glucose, 2 mM CaCl2).\nChloride Free Buffer consisted of 1 mM Magnesium Gluconate, 2 mM Calcium Gluconate, 4.5 mM Potassium Gluconate, 160 mM Sodium Gluconate, 10 mM HEPES, 10 mM Glucose.\nBath 1 Dye Solution consisted of Bath 1 Buffer, 0.04% Pluronic F127, 20 μM Methyl Oxonol, 30 μM CaCCinh-A01, 30 μM Chicago Sky Blue.\nChloride Free Dye Solution consisted of Chloride Free Buffer, 0.04% Pluronic F127, 20 μM Methyl Oxonol, 30 μM CaCCinh-A01, 30 μM Chicago Sky Blue.\nChloride Free Dye Stimulation Solution consisted of Chloride Free Dye Solution, 10 μM forskolin, 100 μM IBMX, and 300 nM Ivacaftor.\nCells were recovered in cell recovery solution, collected by centrifugation at 650 rpm for 5 min at 4° C., resuspended in TryPLE and incubated for 5 min at 37° C. Cells were then collected by centrifugation at 650 rpm for 5 min at 4° C. and resuspended in IEMM containing 10 μM ROCK inhibitor (RI). The cell suspension was passed through a 40 μm cell strainer and resuspended at 1×10^6 cells/mL in IEMM containing 10 μM RI. Cells were seeded at 5000 cells/well into multi-well plates and incubated for overnight at 37° C., 95% humidity and 5% CO2 prior to assay.\nBriefly, cells were washed 5 times in Bath 1 Buffer. Bath 1 Dye Solution was added and the cells were incubated for 25 min at room temperature. Following dye incubation, cells were washed 3 times in Chloride Free Dye Solution. Chloride transport was initiated by addition of Chloride Free Dye Stimulation Solution and the fluorescence signal was read for 15 min. The CFTR-mediated chloride transport for each condition was determined from the AUC of the fluorescence response to acute forskolin and 300 nM N-[2,4-bis(1,1-dimethylethyl)-5-hydroxyphenyl]-1,4-dihydro-4-oxoquinoline-3-carboxamide stimulation. Chloride transport was then expressed as a percentage of the chloride transport following treatment with 3 μM Compound A, 3 μM (R)-1-(2,2-difluorobenzo[d][1,3]dioxol-5-yl)-N-(1-(2,3-dihydroxypropyl)-6-fluoro-2-(1-hydroxy-2-methylpropan-2-yl)-1H-indol-5-yl)cyclopropanecarboxamide and 300 nM acute N-[2,4-bis(1,1-dimethylethyl)-5-hydroxyphenyl]-1,4-dihydro-4-oxoquinoline-3-carboxamide triple combination control (% Activity)."}}, "note": "Read-outs that look alike come from different tables or passages of the source.", "data": [{"smiles": "CC(C)(C)CC1CNc2cccc(n2)S(=O)(=O)NC(=O)c2ccc(-n3ccc(OCCC4C5(CC5)C45CC5)n3)nc2N2C[C@@H](C1)CC2(C)C", "note": "(some centres unmarked)", "values": [{"measurement": "ring closure, isolated yield", "setting": "[1]; from CC(C)(C)CC(CNc1cccc(S(=O)(=O)NC(=O)c2ccc(-n3ccc(OCCC4C5(CC5)C45CC5)n3)nc2Cl)n1)C[C@@H]1CNC(C)(C)C1, K2CO3, DMSO, 73.6 mM, 120.0 °C, 20.0 h", "result": 44, "unit": "%"}]}, {"smiles": "CC(C)(C)CC1CNc2cccc(n2)S(=O)(=O)NC(=O)c2ccc(C(C)(C)C)nc2N2C[C@@H](C1)CC2(C)C", "note": "(some centres unmarked)", "values": [{"measurement": "ring closure, isolated yield", "setting": "[1]; from CC(C)(C)CC(CNc1cccc(S(=O)(=O)NC(=O)c2ccc(C(C)(C)C)nc2F)n1)C[C@@H]1CNC(C)(C)C1, K2CO3, DMSO, 94.7 mM, 120.0 °C, 24.0 h", "result": 27, "unit": "%"}]}, {"smiles": "CC(C)(C)c1ccc2c(n1)N1C[C@@H](CCC(c3cc(Br)ccn3)Nc3cccc(n3)S(=O)(=O)NC2=O)CC1(C)C", "note": "(some centres unmarked)", "values": [{"measurement": "ring closure, isolated yield", "setting": "[1]; from CC(C)(C)OC(=O)N1C[C@@H](CCC(Nc2cccc(S(=O)(=O)NC(=O)c3ccc(C(C)(C)C)nc3F)n2)c2cc(Br)ccn2)CC1(C)C, K2CO3, NMP, 77.8 mM, 150.0 °C, 2 steps", "result": 21, "unit": "%"}]}, {"smiles": "CC(C)(C)c1ccnc(C2CC[C@@H]3CN(c4nc(-n5ccc(OCCC6C7(CC7)C67CC7)n5)ccc4C(=O)NS(=O)(=O)c4cccc(n4)N2)C(C)(C)C3)c1", "note": "(some centres unmarked)", "values": [{"measurement": "ring closure, isolated yield", "setting": "[1]; from CC(C)(C)OC(=O)N1C[C@@H](CCC(Nc2cccc(S(=O)(=O)NC(=O)c3ccc(-n4ccc(OCCC5C6(CC6)C56CC6)n4)nc3Cl)n2)c2cc(C(C)(C)C)ccn2)CC1(C)C, K2CO3, NMP, 48.8 mM, 140.0 °C, 2 steps", "result": 44.5, "unit": "%"}]}, {"smiles": "CC(C)(C)c1ccnc(C2CC[C@@H]3CN(c4nc(C(C)(C)C)c(Br)cc4C(=O)NS(=O)(=O)c4cccc(n4)N2)C(C)(C)C3)c1", "note": "(some centres unmarked)", "values": [{"measurement": "ring closure, isolated yield", "setting": "[1]; from CC(C)(C)OC(=O)N1C[C@@H](CCC(Nc2cccc(S(=O)(=O)NC(=O)c3cc(Br)c(C(C)(C)C)nc3Cl)n2)c2cc(C(C)(C)C)ccn2)CC1(C)C, K2CO3, NMP, 61.5 mM, 160.0 °C, 2 steps", "result": 56, "unit": "%"}]}, {"smiles": "CC(C)(C)c1ccnc(C2CC[C@H]3CCCN(C3)c3nc(C(C)(C)C)ccc3C(=O)NS(=O)(=O)c3cccc(n3)N2)c1", "note": "(some centres unmarked)", "values": [{"measurement": "ring closure, isolated yield", "setting": "[1]; from CC(C)(C)c1ccnc(C(CC[C@H]2CCCNC2)Nc2cccc(S(=O)(=O)NC(=O)c3ccc(C(C)(C)C)nc3F)n2)c1, K2CO3, DMSO, 69.4 mM, 120.0 °C, 24.0 h", "result": 17, "unit": "%"}]}, {"smiles": "CC(C)(C)c1ccnc(C2CC[C@H]3CCN(C3)c3nc(C(C)(C)C)ccc3C(=O)NS(=O)(=O)c3cccc(n3)N2)c1", "note": "(some centres unmarked)", "values": [{"measurement": "ring closure, isolated yield", "setting": "[1]; from CC(C)(C)c1ccnc(C(CC[C@H]2CCNC2)Nc2cccc(S(=O)(=O)NC(=O)c3ccc(C(C)(C)C)nc3F)n2)c1, K2CO3, DMSO, 77.9 mM, 120.0 °C, 2.0 h", "result": 54, "unit": "%"}]}, {"smiles": "CC1(C)C[C@@H]2CCC(c3cncnc3)Nc3cccc(n3)S(=O)(=O)NC(=O)c3ccc(-n4ccc(OCCC5(C(F)(F)F)CC5)n4)nc3N1C2", "note": "(some centres unmarked)", "values": [{"measurement": "ring closure, isolated yield", "setting": "[1]; from CC1(C)C[C@H](CCC(Nc2cccc(S(=O)(=O)NC(=O)c3ccc(-n4ccc(OCCC5(C(F)(F)F)CC5)n4)nc3Cl)n2)c2cncnc2)CN1, K2CO3/3A MS, DMSO, 49.2 mM, 155.0 °C, 18.0 h", "result": 28, "unit": "%"}]}, {"smiles": "CC1(C)C[C@@H]2CCCNc3cccc(n3)S(=O)(=O)NC(=O)c3ccc(-n4ccc(OCCC5C6(CC6)C56CC6)n4)cc3N1C2", "values": [{"measurement": "ring closure, isolated yield", "setting": "[1]; from CC1(C)C[C@H](CCCNc2cccc(S(=O)(=O)NC(=O)c3ccc(-n4ccc(OCCC5C6(CC6)C56CC6)n4)cc3F)n2)CN1, Cs2CO3, DMSO, 67.0 mM, 150.0 °C, 96.0 h", "result": 29, "unit": "%"}]}, {"smiles": "CC1(C)C[C@@H]2CCNCc3cccc(n3)S(=O)(=O)NC(=O)c3ccc(-n4ccc(OCCC5C6(CC6)C56CC6)n4)nc3N1C2", "values": [{"measurement": "ring closure, isolated yield", "setting": "[1]; from CC1(C)C[C@H](CCNCc2cccc(S(=O)(=O)NC(=O)c3ccc(-n4ccc(OCCC5C6(CC6)C56CC6)n4)nc3Cl)n2)CN1, K2CO3, DMSO, 57.3 mM, 120.0 °C, 24.0 h", "result": 3, "unit": "%"}]}, {"smiles": "CC1(C)CC(C2CC[C@@H]3CN(c4nc(C(C)(C)C)ccc4C(=O)NS(=O)(=O)c4cccc(n4)N2)C(C)(C)C3)CC(C)(C)O1", "note": "(mixture of isomers)", "values": [{"measurement": "ring closure, isolated yield", "setting": "[1]; from 6-tert-Butyl-N-[[6-[[3-[(3S)-5,5-dimethylpyrrolidin-3-yl]-1-(2,2,6,6-tetramethyltetrahydropyran-4-yl)propyl]amino]-2-pyridyl]sulfonyl]-2-fluoro-pyridine-3-carboxamide (Trifluoroacetic Acid (1)), K2CO3, DMF, 80.7 mM, 140.0 °C", "result": 48, "unit": "%"}]}, {"smiles": "CC(C)(C)c1ncc2c(n1)N1C[C@@H](CCCNc3cccc(n3)S(=O)(=O)NC2=O)CC1(C)C", "note": "[Compound 11, (14S)-8-tert-butyl-12,12-dimethyl-2λ^6-thia-3,7,9,11,18,23-hexaazatetracyclo[17.3.1.111,14.05,10]tetracosa-1(22),5,7,9,19(23),20-hexaene-2,2,4-trione]", "values": [{"measurement": "Corrector Assay A % activity", "setting": "[2]; % of chloride transport of triple combination control (1 μM (14S)-dispiro macrocycle + 3 μM tezacaftor + 300 nM ivacaftor)", "result": "++ (++ is 30-60%)"}, {"measurement": "EC50", "setting": "[2]; read-out: Corrector Assay A EC50, human intestinal enteroid cells, 18-24 h incubation, acute 10 μM forskolin + 300 nM ivacaftor", "result": "1000 to 3000", "unit": "nM"}, {"measurement": "ring closure, isolated yield", "setting": "[1]; from 2-tert-Butyl-4-chloro-N-[[6-[3-[(3S)-5,5-dimethylpyrrolidin-3-yl]propylamino]-2-pyridyl]sulfonyl]pyrimidine-5-carboxamide (dihydrochloride salt), K2CO3/CsF, NMP, 123.1 mM, 150.0 °C", "result": 13, "unit": "%"}]}, {"smiles": "CC1(C)C[C@@H]2CCCN(c3ccccc3)c3cccc(n3)S(=O)(=O)NC(=O)c3ccc(-n4ccc(OCCC5(C(F)(F)F)CC5)n4)nc3N1C2", "note": "[Compound 395, (14S)-12,12-dimethyl-18-phenyl-8-(3-{2-[1-(trifluoromethyl)cyclopropyl]ethoxy}-1H-pyrazol-1-yl)-2λ^6-thia-3,9,11,18,23-pentaazatetracyclo[17.3.1.111,14.05,10]tetracosa-1(23),5(10),6,8,19,21-hexaene-2,2,4-trione]", "values": [{"measurement": "Corrector Assay B % activity", "setting": "[3]; % of chloride transport of triple combination control (3 μM Compound A + 3 μM tezacaftor + 300 nM ivacaftor)", "result": "++ (++ is 30-60%)"}, {"measurement": "EC50", "setting": "[3]; read-out: Corrector Assay B EC50, human intestinal enteroid cells, 18-24 h incubation, acute 10 μM forskolin + 300 nM ivacaftor", "result": "< 1000", "unit": "nM"}, {"measurement": "ring closure, isolated yield", "setting": "[1]; from CC1(C)C[C@H](CCCN(c2ccccc2)c2cccc(S(=O)(=O)NC(=O)c3ccc(-n4ccc(OCCC5(C(F)(F)F)CC5)n4)nc3Cl)n2)CN1, K2CO3/3A MS, DMSO, 19.9 mM, 155.0 °C, 16.0 h, 2 steps", "result": 46, "unit": "%"}]}]}
